Results taken from US12509462B2, “3-(phenylsulfonyl)-[1,2,3]triazolo[1,5A]quinazolin-5(4H)-one derivatives” (BIOVERSYS AG, priority 2018, dated 2025).
≈ marks a conversion by molar mass, not a printed value.

What was measured:
MRSA (USA300 isolate) = experiment: Hemolysis Assay I (exotoxin-mediated lysis of rabbit red blood cells by culture supernatant); type: cell-based, Staphylococcus aureus; details: Staphylococcus aureus, Erythrocyte, 30/10/3.3/1.1/0.37 μM compound, values at OD600 of 0.75
psmα = type: cell-based, Staphylococcus aureus
[1] = test system: Staphylococcus aureus MRSA strain (USA300 isolate); experiment: Hemolysis Assay II (exotoxin-mediated lysis of rabbit red blood cells by culture filtrate); type: cell-based; details: Erythrocyte; for minimal effective concentration / IC95: 18 h; for minimal effective concentration: absorbance <2× the average of the complete inhibition control, read-out: Hemolysis assay II MEC (minimal effective concentration); for IC95: read-out: Hemolysis assay II IC95; for IC50: 18 h culture in CA-MHB, rabbit red blood cells
RNAIII = type: cell-based, Staphylococcus aureus; details: 10 μM compound, two hours, MRSA (USA300 isolate), normalized to rpoD
[2] = target: AgrAc (C-terminal domain of AgrA) (Staphylococcus aureus, UniProt P0A0I7); type: binding; details: 15N-AgrAc 100 μM, 1.6 mM compound
Chain of AgrAc (C-terminal domain of AgrA) (P0A0I7 143-238): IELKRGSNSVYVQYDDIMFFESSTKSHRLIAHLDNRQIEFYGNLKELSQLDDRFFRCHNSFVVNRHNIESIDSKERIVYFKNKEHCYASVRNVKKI
Text: 2D ^1H,^15N HSQC spectra were acquired at 298 K on a Bruker Avance IIIHD 600 MHz NMR spectrometer, equipped with a cryogenic triple resonance probe (Bruker, Karlsruhe, Germany). The proton chemical shifts were referenced using the methyl signal of sodium 3-trimethylsillyl-[2,2,3,3-d4]-propionate at 0 ppm. Spectra were processed with the Bruker TopSpin software package 3.5 and analyzed with the Sparky software. Assignments of AgrAc were deduced from the Biological Magnetic Resonance Bank (BMRB) entry 18598. Chemical shifts are reported in parts per million (δ) downfield from the internal standard tetramethylsilane (TMS). […]
For each sample tested, 400 μL of 15N-AgrAc @ […] in [50 mM NaPi pH6.3; 100 mM NaCl 3 mM THP; 5% D20; + TMSP] were mixed with 13 μL of the stock solution of the compound (dissolved in DMSO-d6). […] The samples were analysed on the 600 MHz spectrometer with the sample changer. […]
To produce ^15N-labeled C-terminal domain of AgrA (AgrAc), Escherichia coli BL21(DE3) cells were grown in a M9-based semi-rich medium: M9 medium supplemented with [^15N]—NH4Cl (1.5 g/liter), unlabeled D-glucose (4 g/liter), Isogro-^15N Powder-Growth medium (1 g/liter, 10%; Sigma-Aldrich). […] Elution of AgrAc was performed with a sharp gradient of imidazole (0-400 mM) and the fractions were analyzed by SDS-PAGE (4-20%). […] Protein concentration was estimated based on its UV absorbance at 280 nm.

HepG2 = details: human, 48 h
MRSA = experiment: MIC by broth microdilution in CA-MHB (CLSI); details: Staphylococcus aureus, 18 h, read-out: MIC on MRSA
Method: Minimal inhibitory concentrations (MIC) were determined by broth microdilution method in cation-adjusted Mueller-Hinton (CA-MHB) broth according to the CLSI guideline. From an overnight culture plate, cells were resuspended in 0.9% (w/v) saline solution and bacterial inoculum was prepared in CA-MHB with 5×10^5 CFU/ml. Compounds were two-fold serially diluted in CA-MHB and 10 μL of this 10× concentrated samples were added into the 96-well plate. 90 μL of bacterial suspension was finally added to the compounds. Plates were covered and incubated without shaking at 35° C. for 18 hours. Every experiment contained an antibiotic as quality control. MIC was determined visually as the lowest concentration of a compound that prevents visible growth of the bacteria and the plates were scanned for documentation.

S. aureus [3] = details: cited from earlier work
S. aureus [4] = details: cited from earlier work; remark: listed apart in the source
red blood cell (RBC) = details: cited from earlier work
MRSA USA300 type strain = details: mice infected with a MRSA USA300 type strain, applied multiple times; cited from earlier work

Cc1ccc(S(=O)(=O)c2nnn3c2[nH]c(=O)c2ccccc23)c(C)c1 [Compound 34, 3-(2,4-dimethylphenyl)sulfonyl-4H-triazolo[1,5-a]quinazolin-5-one]
IC50 (MRSA (USA300 isolate)): 5 µM
Downregulation of psmα expression at 10 μM (psmα): ++ (++ downregulation>100-fold (2 log10))
minimal effective concentration [1]: 4 µg/mL
IC95 [1]: 3.2 µg/mL (≈ 9.03 µM)
IC50 [1]: 0.9 µg/mL (≈ 2.54 µM)
Downregulation of RNAIII expression at 10 μM (RNAIII): ++ (++ downregulation>100-fold (2 log10))
Chemical shift perturbations upon binding to AgrAc [2]: clearly show an interaction
LD50 HepG2 (HepG2): >=100 μM
MIC (MRSA): ≥ 100 µM

CC(C)c1ccc(S(=O)(=O)c2nnn3c2nc(O)c2ccccc23)cc1 [Savirin, reference compound]
IC50 (MRSA (USA300 isolate)): 15 µM
Resistance after multiple passages (S. aureus [3]): No resistance was developed
Downregulation of psmα expression at 10 μM (psmα): + (key: 0=downregulation between 0 and 10-fold; + downregulation>10-fold (1 log10); ++ downregulation>100-fold (2 log10))
minimal effective concentration [1]: 8 µg/mL
IC95 [1]: 7.8 µg/mL (≈ 21.2 µM)
IC50 [1]: 2.6 µg/mL (≈ 7.06 µM)
Downregulation of RNAIII expression at 10 μM (RNAIII): 0 (0=downregulation between 0 and 10-fold)
Viability of S. aureus (S. aureus [4]): without affecting viability
LD50 HepG2 (HepG2): >=100 μM
Exotoxin-induced red blood cell (RBC) lysis (red blood cell (RBC)): inhibited
MIC (MRSA): ≥ 100 µM
Abscess size and dermo necrosis (MRSA USA300 type strain): significant reduction
